Test results from US20080009418A1, “Selective Inhibitors” (Alchemia LTD., priority 2004, published 2008).

Experiments:
Conditions in all cases: compound at 10 μM
[1] = target: T1, Human melanin-concentrating hormone (MCH1) (Homo sapiens, UniProt Q99705); assay: Radioligand binding, human melanin-concentrating hormone MCH1 membranes, FlashPlate, [125I]-S36057
T1 construct: purchased Perkin Elmer Biosignal
Procedure, shortened: (§1)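 Cloned human receptor membranes were coated onto FlashPlate wells and incubated with radioligand and compound (added from a 0.5 mM DMSO daughter plate) for 1 hour at room temperature in the dark. Scintillation counting gave percent inhibition, with DMSO defining total and reference ligand defining non-specific binding.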

[2] = target: T2, Human Melanocortin (MC4) (Homo sapiens, UniProt P32245); assay: Radioligand binding, human melanocortin MC4 membranes, FlashPlate, [125I]-NDP-αMSH
T2 construct: purchased Perkin Elmer Biosignal
T2 sequence (P32245 whole entry): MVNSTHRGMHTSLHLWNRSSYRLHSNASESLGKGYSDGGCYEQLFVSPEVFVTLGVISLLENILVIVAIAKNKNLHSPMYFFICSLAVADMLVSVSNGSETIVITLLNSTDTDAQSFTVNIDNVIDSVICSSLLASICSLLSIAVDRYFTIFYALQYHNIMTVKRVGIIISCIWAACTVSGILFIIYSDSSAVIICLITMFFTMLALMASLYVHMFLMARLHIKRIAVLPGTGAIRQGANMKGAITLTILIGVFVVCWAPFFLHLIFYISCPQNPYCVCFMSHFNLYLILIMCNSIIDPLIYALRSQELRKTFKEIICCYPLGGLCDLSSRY
Procedure, shortened: as §1

[3] = target: T3, Human δ-opioid (DOP) (Homo sapiens, UniProt P41143); assay: Radioligand binding, human δ-opioid (DOP) membranes, FlashPlate, [3H]-Bremazocine
T3 construct: purchased Perkin Elmer Biosignal
T3 sequence (P41143 whole entry): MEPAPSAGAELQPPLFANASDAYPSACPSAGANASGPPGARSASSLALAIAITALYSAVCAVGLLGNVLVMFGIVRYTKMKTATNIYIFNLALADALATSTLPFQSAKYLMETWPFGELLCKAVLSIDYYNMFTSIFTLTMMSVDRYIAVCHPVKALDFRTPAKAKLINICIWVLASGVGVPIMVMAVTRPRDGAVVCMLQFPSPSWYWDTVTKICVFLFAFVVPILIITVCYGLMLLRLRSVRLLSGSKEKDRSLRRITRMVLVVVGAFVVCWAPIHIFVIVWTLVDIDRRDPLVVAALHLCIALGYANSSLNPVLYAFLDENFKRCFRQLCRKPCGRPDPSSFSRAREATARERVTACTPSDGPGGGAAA
Procedure, shortened: as §1

[4] = target: T4, Human melanocortin (MC5) (Homo sapiens, UniProt P33032); assay: Radioligand binding, human melanocortin MC5 membranes, FlashPlate, [125I]-NDP-αMSH
T4 construct: purchased Perkin Elmer Biosignal
T4 sequence (P33032 whole entry): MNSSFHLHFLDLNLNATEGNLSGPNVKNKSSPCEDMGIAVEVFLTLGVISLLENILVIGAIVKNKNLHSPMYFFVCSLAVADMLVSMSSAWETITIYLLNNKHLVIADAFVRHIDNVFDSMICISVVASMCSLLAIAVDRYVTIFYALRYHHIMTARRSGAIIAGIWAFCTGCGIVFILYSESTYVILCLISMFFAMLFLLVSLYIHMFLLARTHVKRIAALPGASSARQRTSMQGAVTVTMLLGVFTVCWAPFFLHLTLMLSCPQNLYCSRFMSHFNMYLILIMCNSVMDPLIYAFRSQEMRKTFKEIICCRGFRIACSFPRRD
Procedure, shortened: as §1

[5] = target: T5, Human μ-opioid (MOP) (Homo sapiens, UniProt P35372); assay: Radioligand binding, human μ-opioid (MOP) membranes, FlashPlate, [3H]-Naloxone
T5 construct: purchased Perkin Elmer Biosignal
T5 sequence (P35372 whole entry): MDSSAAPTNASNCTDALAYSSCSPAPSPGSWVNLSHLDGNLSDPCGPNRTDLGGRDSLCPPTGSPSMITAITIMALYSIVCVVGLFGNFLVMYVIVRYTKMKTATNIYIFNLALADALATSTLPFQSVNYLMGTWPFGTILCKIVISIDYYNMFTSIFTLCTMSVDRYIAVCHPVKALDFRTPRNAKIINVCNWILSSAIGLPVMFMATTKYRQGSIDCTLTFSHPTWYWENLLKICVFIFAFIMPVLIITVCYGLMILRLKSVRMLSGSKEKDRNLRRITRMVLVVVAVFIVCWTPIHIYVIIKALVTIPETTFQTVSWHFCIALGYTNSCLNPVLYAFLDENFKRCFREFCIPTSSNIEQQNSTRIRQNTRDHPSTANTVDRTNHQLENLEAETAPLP
Procedure, shortened: as §1

[6] = target: T6, Human opioid (ORL1) (Homo sapiens, UniProt P41146); assay: Radioligand binding, human opioid ORL1 membranes, FlashPlate, [125I]-Nociceptin
T6 construct: purchased Perkin Elmer Biosignal
T6 sequence (P41146 whole entry): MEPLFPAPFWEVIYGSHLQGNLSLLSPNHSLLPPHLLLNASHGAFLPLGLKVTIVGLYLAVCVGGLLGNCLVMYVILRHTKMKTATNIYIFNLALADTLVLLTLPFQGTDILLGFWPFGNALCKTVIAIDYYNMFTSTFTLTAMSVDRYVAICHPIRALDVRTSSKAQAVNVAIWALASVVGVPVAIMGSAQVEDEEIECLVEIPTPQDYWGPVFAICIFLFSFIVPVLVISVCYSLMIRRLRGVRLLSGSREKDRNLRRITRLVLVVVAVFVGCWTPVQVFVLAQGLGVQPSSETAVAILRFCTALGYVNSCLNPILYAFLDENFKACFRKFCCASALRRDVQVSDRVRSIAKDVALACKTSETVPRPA
Procedure, shortened: as §1

[7] = target: T7, Human κ-Opioid (KOP) (Homo sapiens, UniProt P41145); assay: Radioligand binding, human κ-opioid (KOP) membranes, filtration, [3H]-Diprenorphine
T7 construct: purchased Perkin Elmer Biosignal
T7 sequence (P41145 whole entry): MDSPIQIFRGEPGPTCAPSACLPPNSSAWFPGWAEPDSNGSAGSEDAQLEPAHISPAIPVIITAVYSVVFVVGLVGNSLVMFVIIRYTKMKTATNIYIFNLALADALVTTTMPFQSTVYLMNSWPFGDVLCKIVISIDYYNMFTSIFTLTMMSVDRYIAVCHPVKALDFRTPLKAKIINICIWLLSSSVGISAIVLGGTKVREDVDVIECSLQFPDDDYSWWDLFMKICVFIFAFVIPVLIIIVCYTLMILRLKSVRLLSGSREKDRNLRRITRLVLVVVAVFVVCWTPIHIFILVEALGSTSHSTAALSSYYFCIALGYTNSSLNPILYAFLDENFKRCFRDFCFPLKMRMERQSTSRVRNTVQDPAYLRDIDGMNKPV
Procedure, shortened: (§2)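 Filtration binding on cloned human receptor membranes (1 Unit/well), [125I]-Substance P for NK1 and [3H]-Diprenorphine for KOP, 1 h at room temperature. Filters PEI-presoaked, washed with cold 50 mM Tris-HCl pH 7.4, counted by scintillation; percent inhibition calculated, reference ligand defining non-specific binding.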

[8] = target: T8, Human Melanocortin (MC3) (Homo sapiens, UniProt P41968); assay: Radioligand binding, human melanocortin MC3 membranes, FlashPlate, [125I]-NDP-αMSH
T8 construct: purchased Perkin Elmer Biosignal
T8 sequence (P41968 whole entry): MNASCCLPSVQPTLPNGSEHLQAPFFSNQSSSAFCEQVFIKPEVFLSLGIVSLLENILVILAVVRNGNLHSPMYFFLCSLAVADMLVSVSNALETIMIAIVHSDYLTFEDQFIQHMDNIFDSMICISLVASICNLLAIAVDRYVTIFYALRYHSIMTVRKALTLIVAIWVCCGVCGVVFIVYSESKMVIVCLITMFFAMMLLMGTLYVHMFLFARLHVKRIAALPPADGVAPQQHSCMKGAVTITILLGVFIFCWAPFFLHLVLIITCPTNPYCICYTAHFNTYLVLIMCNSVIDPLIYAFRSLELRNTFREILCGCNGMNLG
Procedure, shortened: as §1

[9] = target: T9, Human neurokinin (NK1) (Homo sapiens, UniProt P25103); assay: Radioligand binding, human neurokinin NK1 membranes, filtration, [125I]-Substance P
T9 construct: purchased Perkin Elmer Biosignal
T9 sequence (P25103 whole entry): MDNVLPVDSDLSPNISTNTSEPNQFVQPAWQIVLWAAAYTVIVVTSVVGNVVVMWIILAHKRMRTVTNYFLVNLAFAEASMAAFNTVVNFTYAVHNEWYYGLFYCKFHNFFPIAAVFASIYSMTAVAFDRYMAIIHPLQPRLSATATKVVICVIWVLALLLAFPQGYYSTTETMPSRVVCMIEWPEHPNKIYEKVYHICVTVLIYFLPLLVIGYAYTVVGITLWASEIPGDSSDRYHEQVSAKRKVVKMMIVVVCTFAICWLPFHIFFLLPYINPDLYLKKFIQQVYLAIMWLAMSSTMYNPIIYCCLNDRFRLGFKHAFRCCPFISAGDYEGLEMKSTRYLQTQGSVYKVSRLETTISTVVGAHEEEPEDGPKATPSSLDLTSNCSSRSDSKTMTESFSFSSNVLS
Procedure, shortened: as §2

[10] = target: T10, Human neuropeptide Y (NPY-Y1) (Homo sapiens, UniProt P25929); assay: Radioligand binding, human neuropeptide Y NPY-Y1 membranes, FlashPlate, [125I]-PYY
T10 construct: purchased Perkin Elmer Biosignal
T10 sequence (P25929 1-384): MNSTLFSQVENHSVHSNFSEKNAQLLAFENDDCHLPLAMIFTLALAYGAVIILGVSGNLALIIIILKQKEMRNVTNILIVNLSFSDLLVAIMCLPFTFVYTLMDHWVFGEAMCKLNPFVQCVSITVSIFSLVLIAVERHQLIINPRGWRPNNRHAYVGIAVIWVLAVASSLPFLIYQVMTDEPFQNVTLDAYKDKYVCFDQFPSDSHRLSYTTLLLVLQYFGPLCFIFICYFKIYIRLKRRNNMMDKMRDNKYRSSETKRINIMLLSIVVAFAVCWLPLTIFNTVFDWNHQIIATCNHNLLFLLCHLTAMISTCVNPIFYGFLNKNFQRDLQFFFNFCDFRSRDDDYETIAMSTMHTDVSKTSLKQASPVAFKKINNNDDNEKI
Procedure, shortened: as §1

[11] = target: T11, Mouse urotensin (mUR2) (Mus musculus, UniProt Q8VIH9); assay: Radioligand binding, mouse urotensin mUR2 membranes, FlashPlate, [125I]-Urotensin II
T11 construct: purchased Perkin Elmer Biosignal
T11 sequence (Q8VIH9 1-385): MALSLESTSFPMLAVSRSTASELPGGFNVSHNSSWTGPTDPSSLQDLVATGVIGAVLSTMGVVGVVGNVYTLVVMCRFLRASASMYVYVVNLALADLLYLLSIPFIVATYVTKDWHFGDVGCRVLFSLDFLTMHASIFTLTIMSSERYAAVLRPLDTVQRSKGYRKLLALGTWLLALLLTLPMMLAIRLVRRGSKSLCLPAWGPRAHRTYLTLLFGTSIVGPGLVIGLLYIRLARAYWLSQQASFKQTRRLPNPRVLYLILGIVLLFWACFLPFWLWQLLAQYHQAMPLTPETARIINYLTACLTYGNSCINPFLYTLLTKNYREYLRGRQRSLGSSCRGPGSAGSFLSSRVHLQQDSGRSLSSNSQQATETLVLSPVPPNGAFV
Procedure, shortened: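 Cloned mouse urotensin (mUR2) receptor membranes from Perkin Elmer Biosignal were immobilized in FlashPlate microplates using a proprietary coating. Each well got 19.5 μl buffer, then 0.5 μl of DMSO, reference ligand, or compound. Adding 5 μl of [125I]-Urotensin II, diluted to 5× final concentration in binding buffer, started binding. Plates were sealed with TopSeal-A and incubated 1 hour at room temperature in the dark. Wells were counted for 30 seconds each on a TopCount after a 60-second delay, and percentage inhibition was calculated.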

T1 sequence (Q99705 whole entry): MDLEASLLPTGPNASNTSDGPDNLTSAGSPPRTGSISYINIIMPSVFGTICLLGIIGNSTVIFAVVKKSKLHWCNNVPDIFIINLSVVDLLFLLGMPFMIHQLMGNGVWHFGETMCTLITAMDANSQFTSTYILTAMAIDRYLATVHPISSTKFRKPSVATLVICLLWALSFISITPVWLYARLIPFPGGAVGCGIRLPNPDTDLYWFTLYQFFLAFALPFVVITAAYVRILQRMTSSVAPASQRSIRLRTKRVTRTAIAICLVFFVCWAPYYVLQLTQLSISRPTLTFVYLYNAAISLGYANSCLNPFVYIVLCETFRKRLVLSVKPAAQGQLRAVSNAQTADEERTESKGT

COC[C@H]1OC(OCc2ccc3ccccc3c2)[C@H](NC(=O)CCNC(=N)N)[C@@H](OCc2ccc3ccccc3c2)[C@@H]1O (stereo partly drawn) [compound 18]
A6 radioligand binding inhibition ([1]; human MCH1 membranes): + (“+” indicates greater than 50% inhibition at 10 μM)
A4 radioligand binding inhibition ([2]; human melanocortin MC4 membranes): − (“−” indicates less than 50% inhibition at 10 μM)
A1 radioligand binding inhibition ([3]; human δ-opioid (DOP) membranes): − (“−” indicates less than 50% inhibition at 10 μM)
A5 radioligand binding inhibition ([4]; human melanocortin MC5 membranes): + (“+” indicates greater than 50% inhibition at 10 μM)
A7 radioligand binding inhibition ([5]; human μ-opioid (MOP) membranes): + (“+” indicates greater than 50% inhibition at 10 μM)
A10 radioligand binding inhibition ([6]; human ORL1 membranes): − (“−” indicates less than 50% inhibition at 10 μM)
A2 radioligand binding inhibition ([7]; human κ-opioid (KOP) membranes): − (“−” indicates less than 50% inhibition at 10 μM)
A3 radioligand binding inhibition ([8]; human melanocortin MC3 membranes): − (“−” indicates less than 50% inhibition at 10 μM)
A8 radioligand binding inhibition ([9]; human neurokinin NK1 membranes): + (“+” indicates greater than 50% inhibition at 10 μM)
A9 radioligand binding inhibition ([10]; human NPY-Y1 membranes): − (“−” indicates less than 50% inhibition at 10 μM)
A11 radioligand binding inhibition ([11]; mouse urotensin mUR2 membranes): − (“−” indicates less than 50% inhibition at 10 μM)

NCCCC(=O)NC1C(OCc2ccc3ccccc3c2)OC(COCc2ccccc2)C(O)C1OCc1ccc2ccccc2c1 (stereo not drawn) [compound 394]
A6: inhibition of radioligand binding ([1]; [125I]-S36057, human MCH1 membranes): − (“−” indicates less than 50% inhibition at 10 μM)
A4: inhibition of radioligand binding ([2]; [125I]-NDP-αMSH, human MC4 membranes, 10 µM): + (“+” indicates greater than 50% inhibition at 10 μM)
A1: inhibition of radioligand binding ([3]; [3H]-Bremazocine, human DOP membranes): − (“−” indicates less than 50% inhibition at 10 μM)
A5: inhibition of radioligand binding ([4]; [125I]-NDP-αMSH, human MC5 membranes): + (“+” indicates greater than 50% inhibition at 10 μM)
A7: inhibition of radioligand binding ([5]; [3H]-Naloxone, human MOP membranes): − (“−” indicates less than 50% inhibition at 10 μM)
A10: inhibition of radioligand binding ([6]; [125I]-Nociceptin, human ORL1 membranes, 10 µM): − (“−” indicates less than 50% inhibition at 10 μM)
A2: inhibition of radioligand binding ([7]; [3H]-Diprenorphine, human KOP membranes): − (“−” indicates less than 50% inhibition at 10 μM)
A3: inhibition of radioligand binding ([8]; [125I]-NDP-αMSH, human MC3 membranes, 10 µM): + (“+” indicates greater than 50% inhibition at 10 μM)
A8: inhibition of radioligand binding ([9]; [125I]-Substance P, human NK1 membranes): + (“+” indicates greater than 50% inhibition at 10 μM)
A9: inhibition of radioligand binding ([10]; [125I]-PYY, human NPY-Y1 membranes): − (“−” indicates less than 50% inhibition at 10 μM)
A11: inhibition of radioligand binding ([11]; [125I]-Urotensin II, mouse mUR2 membranes): − (“−” indicates less than 50% inhibition at 10 μM)

COC[C@H]1OC(OCc2ccc(-c3ccccc3)cc2)[C@H](NC(=O)CCCNC(=N)N)[C@@H](OCc2ccc(-c3ccccc3)cc2)[C@@H]1O (single isomer, unassigned) [compound 336]
A6: inhibition of radioligand binding, human melanin-concentrating hormone (MCH1) ([1]; [125I]-S36057): + (“+” indicates greater than 50% inhibition at 10 μM)
A4: inhibition of radioligand binding, human melanocortin (MC4) ([2]; [125I]-NDP-αMSH): + (“+” indicates greater than 50% inhibition at 10 μM)
A1: inhibition of radioligand binding, human δ-opioid (DOP) ([3]; [3H]-Bremazocine, 10 µM): − (“−” indicates less than 50% inhibition at 10 μM)
A5: inhibition of radioligand binding, human melanocortin (MC5) ([4]; [125I]-NDP-αMSH): + (“+” indicates greater than 50% inhibition at 10 μM)
A7: inhibition of radioligand binding, human μ-opioid (MOP) ([5]; [3H]-Naloxone, 10 µM): − (“−” indicates less than 50% inhibition at 10 μM)
A10: inhibition of radioligand binding, human opioid (ORL1) ([6]; [125I]-Nociceptin): − (“−” indicates less than 50% inhibition at 10 μM)
A2: inhibition of radioligand binding, human κ-opioid (KOP) ([7]; [3H]-Diprenorphine, 10 µM): − (“−” indicates less than 50% inhibition at 10 μM)
A3: inhibition of radioligand binding, human melanocortin (MC3) ([8]; [125I]-NDP-αMSH, 10 µM): − (“−” indicates less than 50% inhibition at 10 μM)
A8: inhibition of radioligand binding, human neurokinin (NK1) ([9]; [125I]-Substance P): + (“+” indicates greater than 50% inhibition at 10 μM)
A9: inhibition of radioligand binding, human neuropeptide Y (NPY-Y1) ([10]; [125I]-PYY): − (“−” indicates less than 50% inhibition at 10 μM)
A11: inhibition of radioligand binding, mouse urotensin (mUR2) ([11]; [125I]-Urotensin II): − (“−” indicates less than 50% inhibition at 10 μM)
